Here are results for 12 compounds from ChEMBL document CHEMBL1201862, “PubChem BioAssay data set” (2004).

What all share (experiment): NCI tumour cell line growth inhibition, 48 h
Experiment [1] deals with NCI-H23.
The test system of experiment [2] is HT-29.
The test system of experiment [3] is OVCAR-3.
The test system of experiment [4] is SF-268.
Experiment [5] concerns UACC-62.
Experiment [6] concerns COLO 205.
The test system of experiment [7] is Malme-3M.
The test system of experiment [8] is MOLT-4.
Experiment [9] deals with SK-MEL-28.
In experiment [10] the test system is KM12.
Experiment [11] relates to DMS-273.
For experiment [12], the system named is IGROV-1.
Experiment [13] concerns K562.
Experiment [14] has as its system A549.
In experiment [15] the test system is ACHN.
Experiment [16] concerns SN12C.
In experiment [17] the test system is SK-OV-3.
In experiment [18] the test system is MDA-MB-231.
Experiment [19] has as its system BT-549.
Experiment [20] relates to MDA-MB-435.

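Five compound concentrations were applied to cells in 96-well plates for 48 hours; endpoints were derived by simple linear interpolation of the resulting dose-response curve. Here, GI50 denotes the concentration required for 50% inhibition of growth.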 The source made the active and inactive calls. Cut-off read from the data, not from the text of the source: active = GI50 up to about 1.1 µM and inactive = higher.

As to `COc1cc(C(C)c2cc3c(cc2OCCN)OCO3)cc(OC)c1OC` (stereo not given), the GI50 was 31.8 µM (inactive) in experiment [1]; > 100 µM (inactive) in [2]; > 100 µM (inactive) in experiment [3]; 73.8 µM (inactive) in [4]; 35.5 µM (inactive) in experiment [5]; > 100 µM (inactive) in experiment [6]. The GI50 in experiment [7] is > 100 µM (inactive); in experiment [8], 10.9 µM (inactive); in [9], 28.2 µM (inactive); in [10] it was 28.4 µM (inactive); in [11], > 100 µM (inactive); in experiment [12], > 100 µM (inactive). The GI50 in [13], in experiment [14], in experiment [15] and in experiment [16] was > 100 µM (inactive) throughout.
`Cc1c2c(ccc3ccccc32)c[n+]2ccccc12`: the GI50 in experiment [1] was 4.15 µM (inactive); in experiment [2] it was 49.7 µM (inactive); in experiment [3] it was 2.27 µM (inactive); in [4] it was 2.01 µM (inactive); in experiment [6], 13 µM (inactive); in experiment [7], 2.25 µM (inactive). For the same compound, the GI50 was 6.59 µM (inactive) in experiment [8]; 15.7 µM (inactive) in experiment [9]; 1.09 µM (active) in [10]; 12.7 µM (inactive) in experiment [11]; 11.6 µM (inactive) in experiment [13]; 1.44 µM (inactive) in experiment [14]. Further, in [15], the GI50 was 44.4 µM (inactive).
Consider `N=c1c2ccccc2sc2nc3ccccc3n12`, for which the GI50 in experiment [1], in experiment [2], in [4], in [5], in [6] and in [7] was > 100 µM (inactive) throughout. Further, the GI50 was > 100 µM (inactive) in experiment [8]; > 100 µM (inactive) in experiment [9]; > 100 µM (inactive) in experiment [10]; > 100 µM (inactive) in experiment [11]; > 100 µM (inactive) in experiment [12]; 72.3 µM (inactive) in [17]. The GI50 in [13], in [14], in experiment [15] and in experiment [16] was > 100 µM (inactive) throughout.
In the case of `CC(SC(=S)Nc1cccc(F)c1)C(=O)O` (stereo not given), the GI50 was 21 µM (inactive) in [1]; 30.5 µM (inactive) in experiment [2]; 27.4 µM (inactive) in experiment [3]; 13.6 µM (inactive) in experiment [4]; 19 µM (inactive) in experiment [5]; > 10 µM (inactive) in experiment [6]. Also, the GI50 was 17.5 µM (inactive) in [8]; 16.1 µM (inactive) in experiment [9]; > 10 µM (inactive) in [10]; 11.8 µM (inactive) in experiment [11]; 3.85 µM (inactive) in experiment [12]; 15.6 µM (inactive) in experiment [13]. In addition, the figures for the GI50 in experiment [14], in experiment [15] and in [16] were 31.7 µM (inactive), 26.5 µM (inactive) and 50.7 µM (inactive), respectively.
Consider `COc1ccc(C(=O)Nc2ccccc2C#N)cc1`, for which the GI50 in experiment [1], in experiment [2], in [3], in experiment [4], in experiment [5] and in experiment [6] was > 100 µM (inactive) throughout. Also, the GI50 in [7], in experiment [9], in [10], in experiment [11], in [12] and in experiment [13] was > 100 µM (inactive) throughout. Besides, the GI50 in experiment [14], in experiment [15] and in [16] was > 100 µM (inactive) throughout.
On to `Cc1nnc2n1N=C(CC(=O)c1ccc(O)cc1O)CN2N`, for which the GI50 is > 100 µM (inactive) in [1]; > 100 µM (inactive) in [2]; > 100 µM (inactive) in experiment [4]; > 100 µM (inactive) in experiment [5]; 19.2 µM (inactive) in experiment [6]; > 100 µM (inactive) in [7]. Also, the GI50 in experiment [9] was > 100 µM (inactive); in experiment [10] it was > 100 µM (inactive); in experiment [11], 40.4 µM (inactive); in experiment [12], > 100 µM (inactive); in experiment [17], > 100 µM (inactive); in [13] it was > 100 µM (inactive). For the same compound, the GI50 in experiment [14], in [15] and in experiment [16] was > 100 µM (inactive) each time.
Take `CC(C)(C)C1CCC2c3c([nH]c4ccccc34)C3C(=O)N(c4ccc5c(c4)C(=O)c4ccccc4C5=O)C(=O)C3C2C1` (stereo not given): the GI50 in experiment [1], in experiment [2], in experiment [3], in [18], in [4] and in experiment [5] was > 100 µM (inactive) in each case. The GI50 in experiment [6], in [7], in experiment [8], in experiment [9], in [19] and in [10] was > 100 µM (inactive) in each case. In addition, the GI50 in experiment [12], in experiment [20], in experiment [17], in [13], in experiment [14] and in [15] was > 100 µM (inactive) each time. Also, in [16], the GI50 was > 100 µM (inactive).
For `O=c1[nH]c2nccn2c(Cl)c1Br`, the GI50 in experiment [1] was 17.9 µM (inactive); in [2] it was 23.3 µM (inactive); in experiment [3], 19.8 µM (inactive); in [18] it was 17.5 µM (inactive); in experiment [4], 23.2 µM (inactive); in experiment [5], 19.4 µM (inactive). The GI50 was 18.6 µM (inactive) in experiment [6]; 20 µM (inactive) in experiment [7]; 20.2 µM (inactive) in [8]; 19.4 µM (inactive) in [9]; 18.7 µM (inactive) in experiment [19]; 95.1 µM (inactive) in experiment [10]. Moreover, the GI50 in experiment [12] is 20.3 µM (inactive); in [20], 19.8 µM (inactive); in experiment [17] it was 29.6 µM (inactive); in experiment [13], 19.6 µM (inactive); in experiment [14], > 100 µM (inactive); in experiment [15], 29.9 µM (inactive). Besides, the GI50 in [16] was 26.2 µM (inactive).
Regarding `O=[N+]([O-])c1c(F)c(F)c2c(c1F)Nc1ccccc1S2`, the GI50 in experiment [1] is 2.63 µM (inactive); in experiment [2], 2.07 µM (inactive); in experiment [3] it was 2.03 µM (inactive); in experiment [18], 2.27 µM (inactive); in experiment [4], 2.49 µM (inactive); in [5], 5.61 µM (inactive). For the same compound, the GI50 in experiment [6] is 13.9 µM (inactive); in [7] it was 5.55 µM (inactive); in experiment [8] it was 2.61 µM (inactive); in experiment [9], 2.51 µM (inactive); in [19], 11 µM (inactive); in [10] it was 4.49 µM (inactive). In addition, the GI50 in experiment [12] was 3.08 µM (inactive); in [20] it was 4.81 µM (inactive); in [17] it was 18.2 µM (inactive); in [13], 2.87 µM (inactive); in [14], 19.2 µM (inactive); in experiment [15], 15.7 µM (inactive). In addition, the GI50 in experiment [16] is 3.38 µM (inactive).
With `CCOC(=O)C1=C(N)N(c2ccccc2)/C(=C2\SC(=S)N(c3ccc(C)cc3)C2=O)S1`, the GI50 in experiment [1] is 47.4 µM (inactive); in experiment [2], 47.3 µM (inactive); in experiment [3], 27.9 µM (inactive); in experiment [18], 22.6 µM (inactive); in [4], 29.5 µM (inactive); in [5] it was 88.7 µM (inactive). Moreover, the GI50 in [6] is > 100 µM (inactive); in experiment [7], 51.1 µM (inactive); in experiment [8], 60.8 µM (inactive); in [9], 23.4 µM (inactive); in experiment [19], 90.2 µM (inactive); in experiment [10] it was > 100 µM (inactive). Further, the GI50 in experiment [12] is > 100 µM (inactive); in experiment [20] it was > 100 µM (inactive); in experiment [17], 26.9 µM (inactive); in [13], 36.8 µM (inactive); in experiment [14] it was 52.1 µM (inactive); in experiment [15] it was 76 µM (inactive). For the same compound, the GI50 in experiment [16] was 35.8 µM (inactive).
Regarding `O=c1c2cc([N+](=O)[O-])ccc2n2n1Cc1ccccc1CC2`, the GI50 in experiment [1], in [2], in experiment [3], in experiment [18], in experiment [4] and in [5] was > 100 µM (inactive) each time. The GI50 in experiment [6], in experiment [7], in [8], in experiment [9], in experiment [19] and in experiment [10] was > 100 µM (inactive) in each case. For the same compound, the GI50 in [12], in experiment [20], in experiment [17], in experiment [13], in experiment [14] and in experiment [15] was > 100 µM (inactive) throughout. The GI50 in experiment [16] is > 100 µM (inactive).
In the case of `Nc1ccc2n[se]nc2c1`, the GI50 in experiment [1], in experiment [2], in experiment [4], in experiment [5], in experiment [7] and in experiment [8] was > 100 µM (inactive) each time. Also, the GI50 in experiment [9] was > 100 µM (inactive); in [10] it was 48.1 µM (inactive); in experiment [11] it was > 100 µM (inactive); in [12], > 100 µM (inactive); in experiment [17] it was > 100 µM (inactive); in experiment [13] it was > 100 µM (inactive). The GI50 in experiment [14], in experiment [15] and in experiment [16] was > 100 µM (inactive) throughout.
